Assay results as given in the NIST ThermoML archive (doi:10.1021/je034162x).

Settings: 101.33 kPa, Liquid, Hot wire method

C1=CCC=CC1 [1,4-cyclohexadiene]
Settings	thermal conductivity [W/m/K]	thermal diffusivity [m2/s]
258.46 K	0.1586	–
258.67 K	0.1584	–
258.82 K	0.1583	–
259.36 K	–	1.06e-07
259.93 K	–	1.05e-07
260.35 K	–	1.05e-07
264.86 K	0.1564	–
265.08 K	0.1563	–
265.23 K	0.1562	–
265.75 K	–	1.04e-07
266.36 K	–	1.04e-07
266.77 K	–	1.04e-07
279.38 K	0.1514	–
279.6 K	0.1512	–
279.76 K	0.1511	–
280.29 K	–	9.95e-08
280.9 K	–	9.93e-08
281.33 K	–	9.92e-08
296.2 K	0.1455	–
296.43 K	0.1453	–
296.6 K	0.1452	–
297.14 K	–	9.5e-08
297.75 K	–	9.45e-08
298.19 K	–	9.45e-08
313.9 K	0.1393	–
314.13 K	0.139	–
314.31 K	0.139	–
314.86 K	–	9.01e-08
315.48 K	–	8.95e-08
315.93 K	–	8.95e-08
328.51 K	0.1343	–
328.75 K	0.1341	–
328.93 K	0.134	–
329.48 K	–	8.61e-08
330.11 K	–	8.57e-08
330.58 K	–	8.57e-08

C=C(C)C(C)C [2,3-dimethyl-1-butene]
Settings	thermal conductivity [W/m/K]	thermal diffusivity [m2/s]
258.98 K	0.117	–
259.29 K	0.1169	–
259.4 K	0.1168	–
260.37 K	–	8.17e-08
261.29 K	–	8.19e-08
261.55 K	–	8.16e-08
278.29 K	0.1108	–
278.63 K	0.1106	–
278.87 K	0.1105	–
279.73 K	–	7.65e-08
280.7 K	–	7.67e-08
281.39 K	–	7.68e-08
294.18 K	0.1058	–
294.53 K	0.1056	–
294.78 K	0.1055	–
295.65 K	–	7.3e-08
296.68 K	–	7.29e-08
297.38 K	–	7.28e-08
312.86 K	0.1002	–
313.23 K	0.1	–
313.5 K	0.09991	–
314.43 K	–	6.88e-08
315.45 K	–	6.84e-08
316.18 K	–	6.83e-08
322.51 K	0.0974	–
322.9 K	0.0973	–
323.18 K	0.0972	–
324.07 K	–	6.6e-08
325.17 K	–	6.65e-08
325.9 K	–	6.62e-08
326.52 K	0.09639	–
326.91 K	0.09621	–
327.21 K	0.09612	–
328.13 K	–	6.58e-08
329.22 K	–	6.58e-08
330.05 K	–	6.62e-08
